US9719057B2, “Laundry detergent” (Liquid Vanity ApS, priority 2010, dated 2017)

Tests used:
[1] = tested on: Candida albicans, ATCC 2091; assay: Biocidal effect, dosage response and synergy (reduction in CFU after exposure to biocide); type: cell-based; conditions: 9 minutes at 30° C.; for Reduction obtained in Candida Albicans: pH 6-6.5, factor of reduction in CFU
Excerpt: (§1) The assay is based on the requirements to chemical disinfectants and antiseptic agent with regard to a reduction in fungus and bacteria of 4 and 5 log units respectively. These requirements are stated in DS/EN 1276:1997 and DS/EN 1275:2005, respectively.
(§2) The following microorganisms were chosen for this dosage response assays: Staphylococcus aureus, ATCC 6538, representing grampositive bacteria; Escherichia coli, ATCC 11229, representing gramnegative bacteria; and Candida albicans, ATCC 2091, representing yeast fungi.
Candida albicans was cultivated on malt extract agar (MEA) for 24 h at 37° C. before use. Then the yeast cells were harvested in 0.9% saline by use of a drigalski spatula. CFU were determined by plating on MEA.
(§3) The exposure to biocide was performed at pH 6-6.5, which was obtained by addition of 100 mM potassium phosphate buffer. To test tubes with 8 mL sterile 100 mM phosphate buffer were added 1 mL test solution (i.e. biocide solution) and 1 mL stock culture. After thorough mixing the assay mixtures were exposed to heating in water bath at 30° C. for 9 minutes. After exposure the test tubes were immediately removed from the water bath and the surviving microorganisms were determined by plating.
(§4) Reference samples were prepared by adding 1 mL sterile water instead of 1 mL test solution.
(§5) From appropriate dilutions of starting material (mixture of biocide solution, stock culture and buffer) was taken 0.1 mL onto agar plates, and the material was spread with Drigalski spatulas. The plates were incubated at 37° C. 1 day for bacteria and 2 days for yeast.
(§6) For determining CFU of the bacteria after exposure, with and without biocide, was used incubation on TSA for 24 h at 37° C. For determining CFU of Candida albicans before and after exposure was used incubation on MEA for 48 h at 37° C.
(§7) Where a large reduction in organisms was expected (test concentrations of 700 and 200 ppm) 1 mL and 0.1 mL solution, respectively, were mixed with 100 ml sterile water and filtered through a 47 mm Millipore EZ-Pak® membrane filter, mesh 0.22 μm. The filter was rinsed with 100 mL sterile water, and thereafter placed directly on the agar plate. The mixing in water and subsequent rinsing ensures that the biocide is heavily diluted and thus will not have any effect after plating. For dilutions of 100× and more, regular plating were used, as the biocide at these concentrations is considered to not provide any further reduction in the microorganisms during plating on agar.
(§8) Plates with between 20 and 500 CFU were chosen for counting. Number of CFU (colony forming units) per g or mL sample was calculated by multiplying the number of colonies per plate with the dilution and further by 10, as only 0.1 mL was used on each plate.
(§9) After incubation, CFU was determined and reduction in organisms was calculated. All tests were performed in triplicate.
(§10) The optimal biocides, Bardap-26 and Akacid Forte, found in Example 4A, were further assayed for synergistically effect. Bardap-26 and Akacid Forte was mixed in a 50:50 ratio, and the applied concentrations can be seen from Table 5. The methods and solutions were otherwise as described in example 4A herein.

[2] = Critical micelle concentration by Sudan Black B absorbance at 600 nm; type: physicochemical; conditions: data not shown
Experimental: The critical micelle concentration is measured using Sudan Black B dissolved in the test solutions at different concentrations. Sudan Black B is dissolvable in micelles, only. A difference in the absorbance measured is thus a valid measure of the critical micelle concentration in the test solutions. Absorbance was measured using a Shimadzu UV-1800 spectrofotometer and the absorbance is measured at 600 nm. Dilutions were made in water and Sudan Black B by adding first water, then Sudan Black B and at last the test solutions to 4 ml cuvettes. The dilutions were then stirred and left for at least 6 hours at room temperature. Then the absorbance was measured.

[3] = tested on: Escherichia coli, ATCC 11229; assay: Biocidal effect, dosage response and synergy (reduction in CFU after exposure to biocide); type: cell-based; conditions: 9 minutes at 30° C.; for Reduction obtained in E. coli: pH 6-6.5, factor of reduction in CFU
Excerpt: as §1, §2
(§11) The bacterial cultures were cultivated in the growth medium TSB (Tryptic Soy Bouillon) for 24 h at 37° C. before use. Colony forming units (CFU) were determined by plating Tryptic Soy Agar (TSA).
as §3, §4, §5, §6, §7, §8, §9, §10

[4] = tested on: Staphylococcus aureus, ATCC 6538; assay: as above; type: cell-based; conditions: 9 minutes at 30° C.; for Reduction obtained in Staphylococcus Aureus: pH 6-6.5, factor of reduction in CFU
Excerpt: as §1, §2, §11, §3, §4, §5, §6, §7, §8, §9, §10

[5] = 120 ppm active (total for mixtures)
[6] = test concentrations 40-700 ppm active

## N,N-didecyl-N-methyl-poly(oxyethyl) ammonium propionate [Bardap-26]
[1]; 40 ppm active
  Reduction obtained in Candida Albicans: No reduction
[1]; 80 ppm active
  Reduction obtained in Candida Albicans: 10^2-10^3
[1]; [5]
  Reduction obtained in Candida Albicans: ~10^3
[1]; 160 ppm active
  Reduction obtained in Candida Albicans: ~10^4
[1]; 200 ppm active
  Reduction obtained in Candida Albicans: ~10^4
[1]; 700 ppm active
  Reduction obtained in Candida Albicans: 10^4-10^5
[1]; concentration not given
  Reduction of Candida Albicans: 10^4
[1]; [6]
  Effect on Candida Albicans as summarised in words: good effect
[2]
  CMC: 0.7 to 1.0 mmol/L
[3]; 40 ppm active
  Reduction obtained in E. coli: ~10^4
[3]; 80 ppm active
  Reduction obtained in E. coli: ~10^4
[3]; [5]
  Reduction obtained in E. coli: 10^4-10^5
[3]; 160 ppm active
  Reduction obtained in E. coli: >10^7
[3]; 200 ppm active
  Reduction obtained in E. coli: >10^7
[3]; 700 ppm active
  Reduction obtained in E. coli: >10^7
[3]; [6]
  Effect on E. coli as summarised in words: good effect
[4]; 40 ppm active
  Reduction obtained in Staphylococcus Aureus: ~10^2
[4]; 80 ppm active
  Reduction obtained in Staphylococcus Aureus: 10^2-10^3
[4]; [5]
  Reduction obtained in Staphylococcus Aureus: 10^2-10^3
[4]; 160 ppm active
  Reduction obtained in Staphylococcus Aureus: >10^7
[4]; 200 ppm active
  Reduction obtained in Staphylococcus Aureus: >10^7
[4]; 700 ppm active
  Reduction obtained in Staphylococcus Aureus: >10^7
[4]; [6]
  Effect on Staphylococcus Aureus as summarised in words: good effect
